The values below come from patent US8859549B2, “Potassium channel modulators” (AbbVie, Inc., priority 2011, dated 2014).

The target of this test is T1, KCNQ 2/3 channels (Homo sapiens, UniProt O43525+O43526).
T1 construct: expressed in transfected cells; host or cells: HEK293
Description: KCNQ 2/3 channel activation, thallium flux FLIPR assay (BTC-AM dye). Conditions: for Emax: HEK293, maximum response relative to the response of 10 μM retigabine (set at 100%), HEK293 KCNQ2/KCNQ3 cells, read-out: % MAX; for EC50: HEK293 cells stably expressing human KCNQ2 and KCNQ3 subunits, thallium-induced fluorescence, 4 min compound incubation. Format: cell-based. How it is done: The following example describes the assay that can be used to identify compounds that activate KCNQ 2/3 channels.
HEK293 cells stably expressing human KCNQ2 and KCNQ3 subunits were seeded in 96-well, black-walled, clear-bottomed, poly-D-lysine coated plates (BD Biosciences, Bedford, Mass.) at a density of 1×10^5 cells per well 24 hours before the assay. On the assay day, BTC-AM dye (Invitrogen, Carlsbad, Calif.) was loaded into the cells by replacing the cell culture medium with 55 μL/well of 3 μg/mL dye in DPBS. Dye loading was allowed to proceed for 2 hours at room temperature and then cells were washed twice with 50 μL/well of assay buffer (in mM: 10 HEPES pH 7.3, 5 glucose, 140 Na-gluconate, 2.5 K-gluconate, 3.6 Ca-gluconate, 2 MgSO4, 0.1 Ouabain) to remove unloaded dye. Cells were incubated in 50 μL of assay buffer before loading onto a FLIPR system (Molecular Devices, Sunnyvale, Calif.). Various concentrations of compounds to be assayed were added to the cells in 50 μL of assay buffer and incubated for 4 minutes. The fluorescence signal was initiated by adding 100 μL of assay buffer containing 6 mM TlNO3 and 10 mM K2SO4. Fluors were excited using the 488-nm line of an argon laser and emission was filtered using a 540±30 nm bandpass filter. Fluorescent signals were recorded for 3 minutes. Sums of the responses over basal responses were plotted versus concentrations of test compounds to obtain an EC50 value. The maximum response for each test compound was determined relative to the response produced by 10 μM retigabine. The maximum response of retigabine at 10 μM was set at 100%.

As to `O=C(O)Cc1nn(NC(=O)Cc2ccc(Cl)cc2)c(=O)c2ccccc12` [Example 114, (3-{[(4-chlorophenyl)acetyl]amino}-4-oxo-3,4-dihydrophthalazin-1-yl)acetic acid], the Emax came to 3.72%.

For `O=C(Cc1ccccc1[N+](=O)[O-])Nn1nc(N2CCOCC2)c2ccccc2c1=O` [Example 142, N-[4-(morpholin-4-yl)-1-oxophthalazin-2(1H)-yl]-2-(2-nitrophenyl)acetamide], the Emax amounted to 1.59%.

Usually EC50 stands for the midpoint of the concentration-response curve. Lower therefore signals higher potency in that assay. As to `Cc1ccsc1-c1nn(NC(=O)Cc2cc(F)cc(F)c2)c(=O)c2ccccc12` [Example 14, 2-(3,5-difluorophenyl)-N-[4-(3-methylthiophen-2-yl)-1-oxophthalazin-2(1H)-yl]acetamide], the Emax turned out to be 146% and the EC50 came to 296 nM.

With `C[C@@H]1CN(c2nn(NC(=O)Cc3cc(F)cc(F)c3)c(=O)c3ccccc23)C[C@H](C)O1` [Example 88, 2-(3,5-difluorophenyl)-N-{4-[(cis)-2,6-dimethylmorpholin-4-yl]-1-oxophthalazin-2(1H)-yl}acetamide], the Emax was 107% and the concentration giving a half-maximal response (EC50) was 998 nM. As for `O=C(Cc1ccc(Cl)cc1)Nn1nc(-c2ccnc(Cl)c2)c2ccccc2c1=O` [Example 49, 2-(4-chlorophenyl)-N-[4-(2-chloropyridin-4-yl)-1-oxophthalazin-2(1H)-yl]acetamide], the Emax was 107% and the EC50 was determined as 383 nM. `O=C(Cc1cccc(Oc2ccccc2)c1)Nn1nc(N2CCOCC2)c2ccccc2c1=O` [Example 131, N-[4-(morpholin-4-yl)-1-oxophthalazin-2(1H)-yl]-2-(3-phenoxyphenyl)acetamide]: the Emax was determined as 17.1%.

For the compound `O=C(CC1CCCC1)Nn1nc(N2CCOCC2)c2ccccc2c1=O` [Example 137, 2-cyclopentyl-N-[4-(morpholin-4-yl)-1-oxophthalazin-2(1H)-yl]acetamide], the Emax turned out to be 135% and the response was half-maximal at 7680 nM (EC50). In the case of `CC(C(=O)O)c1nn(NC(=O)Cc2ccc(Cl)cc2)c(=O)c2ccccc12` (centres unmarked) [Example 110, 2-(3-{[(4-chlorophenyl)acetyl]amino}-4-oxo-3,4-dihydrophthalazin-1-yl)propanoic acid], the Emax amounted to 2.26%.

In the case of `O=C(Cc1cc(F)cc(F)c1)Nn1nc(C2=CCOCC2)c2ccccc2c1=O` [Example 7, 2-(3,5-difluorophenyl)-N-[4-(3,6-dihydro-2H-pyran-4-yl)-1-oxophthalazin-2(1H)-yl]acetamide], the Emax amounted to 140% and the midpoint of the response, the EC50, lay at 3130 nM. As for `O=C(Cc1ccc(Cl)cc1)Nn1nc(CNC(=O)OC2CCCC2)c2ccccc2c1=O` [Example 187, cyclopentyl[(3-{[(4-chlorophenyl)acetyl]amino}-4-oxo-3,4-dihydrophthalazin-1-yl)methyl]carbamate], the Emax was determined as 32%. Take `O=C(Cc1ccc(Cl)cc1)Nn1nc(N2CCN(Cc3ccccc3)CC2)c2ccccc2c1=O` [Example 101, N-[4-(4-benzylpiperazin-1-yl)-1-oxophthalazin-2(1H)-yl]-2-(4-chlorophenyl)acetamide]: the Emax is 112% and the EC50 worked out at 3490 nM.

Take `CC(C)(C)OC(=O)c1nn(NC(=O)CC2CC3CCC2C3)c(=O)c2ccccc12` (racemic) [Example 94, (±)-tert-butyl 3-{[(exo)-bicyclo[2.2.1]hept-2-ylacetyl]amino}-4-oxo-3,4-dihydrophthalazine-1-carboxylate]: the Emax turned out to be 201% and the half-maximal effective concentration (EC50) was 76.7 nM.

As to `CN(C)C(=O)c1nn(NC(=O)CC2CC3CCC2C3)c(=O)c2ccccc12` (racemic) [Example 56, (±)-3-{[(exo)-bicyclo[2.2.1]hept-2-ylacetyl]amino}-N,N-dimethyl-4-oxo-3,4-dihydrophthalazine-1-carboxamide], the Emax came to 84.9%. Regarding `Cc1cccc(CC(=O)Nn2nc(S(=O)(=O)c3ccccc3)c3ccccc3c2=O)c1` [Example 207, 2-(3-methylphenyl)-N-[1-oxo-4-(phenylsulfonyl)phthalazin-2(1H)-yl]acetamide], the Emax was determined as 69.9% and the midpoint of the response, the EC50, lay at 306 nM. In the case of `O=C(Cc1ccc(Cl)cc1)Nn1nc([S+]([O-])c2ccccc2)c2ccccc2c1=O` (centres unmarked) [Example 82, 2-(4-chlorophenyl)-N-[1-oxo-4-(phenylsulfinyl)phthalazin-2(1H)-yl]acetamide], the Emax turned out to be 119% and the EC50 amounted to 872 nM.

Take `O=C(CC1CC2CCC1C2)Nn1nc(N2CCCCC2)c2ccccc2c1=O` (racemic) [Example 25, (±)-2-[(exo)-bicyclo[2.2.1]hept-2-yl]-N-[1-oxo-4-(piperidin-1-yl)phthalazin-2(1H)-yl]acetamide]: the Emax came out at 144% and the midpoint of the response, the EC50, lay at 25.3 nM. As for `O=C(Cc1cc(F)cc(F)c1)Nn1nc(S(=O)(=O)c2ccc(Br)cc2)c2ccccc2c1=O` [Example 202, N-{4-[(4-bromophenyl)sulfonyl]-1-oxophthalazin-2(1H)-yl}-2-(3,5-difluorophenyl)acetamide], the Emax amounted to 106% and the concentration for a half-maximal effect (EC50) is 64.7 nM.

Turning to `O=C(Cc1cccc(F)c1F)Nn1nc(N2CCOCC2)c2ccccc2c1=O` [Example 175, 2-(2,3-difluorophenyl)-N-[4-(morpholin-4-yl)-1-oxophthalazin-2(1H)-yl]acetamide], the Emax is 17.3%. For the compound `CC(C)(C)S(=O)(=O)c1nn(NC(=O)Cc2ccc(Cl)cc2)c(=O)c2ccccc12` [Example 201, N-[4-(tert-butylsulfonyl)-1-oxophthalazin-2(1H)-yl]-2-(4-chlorophenyl)acetamide], the Emax was 92.3% and the EC50 was 738 nM. In the case of `O=C(Cc1ccc(Cl)cc1)Nn1nc(S(=O)(=O)c2cc[n+]([O-])cc2)c2ccccc2c1=O` [Example 196, 2-(4-chlorophenyl)-N-{4-[(1-oxidopyridin-4-yl)sulfonyl]-1-oxophthalazin-2(1H)-yl}acetamide], the Emax is 16.6%. On to `O=C(CC1CC2CCC1C2)Nn1nc(C(=O)c2ccccc2)c2ccccc2c1=O` (racemic) [Example 40, (±)-N-(4-benzoyl-1-oxophthalazin-2(1H)-yl)-2-[(exo)-bicyclo[2.2.1]hept-2-yl]acetamide], for which the Emax is 135% and a half-maximal effect (EC50) was put at 31.1 nM. In the case of `N#Cc1ccc(S(=O)(=O)c2nn(NC(=O)Cc3ccc(F)cc3)c(=O)c3ccccc23)cc1` [Example 224, N-{4-[(4-cyanophenyl)sulfonyl]-1-oxophthalazin-2(1H)-yl}-2-(4-fluorophenyl)acetamide], the Emax was 75.2% and the 50% effective concentration (EC50) worked out at 155 nM. Turning to `O=C(Cc1cc(F)ccc1F)Nn1nc(N2CCOCC2)c2ccccc2c1=O` [Example 176, 2-(2,5-difluorophenyl)-N-[4-(morpholin-4-yl)-1-oxophthalazin-2(1H)-yl]acetamide], the Emax was found to be 18%. As for `O=C(Cc1cccc2ccccc12)Nn1nc(N2CCOCC2)c2ccccc2c1=O` [Example 165, N-[4-(morpholin-4-yl)-1-oxophthalazin-2(1H)-yl]-2-(naphthalen-1-yl)acetamide], the Emax was determined as 7.96%. In the case of `N#Cc1ccc(S(=O)(=O)c2nn(NC(=O)Cc3cc(F)cc(F)c3)c(=O)c3ccccc23)cc1` [Example 223, N-{4-[(4-cyanophenyl)sulfonyl]-1-oxophthalazin-2(1H)-yl}-2-(3,5-difluorophenyl)acetamide], the Emax came out at 86.2% and the 50% effective concentration (EC50) came to 149 nM. Consider `CC(C(=O)NC(C)(C)C)c1nn(NC(=O)Cc2ccc(Cl)cc2)c(=O)c2ccccc12` (centres unmarked) [Example 112, N-tert-butyl-2-(3-{[(4-chlorophenyl)acetyl]amino}-4-oxo-3,4-dihydrophthalazin-1-yl)propanamide], for which the Emax is 17.1%.

With `O=C(Cc1cccc(C(F)(F)F)c1)Nn1nc(S(=O)(=O)c2ccccc2)c2ccccc2c1=O` [Example 208, N-[1-oxo-4-(phenylsulfonyl)phthalazin-2(1H)-yl]-2-[3-(trifluoromethyl)phenyl]acetamide], the Emax came out at 33.3%. With `O=C(CC1CC2CCC1C2)Nn1nc(-c2ccnc(C(=O)O)c2)c2ccccc2c1=O` (racemic) [Example 75, (±)-4-(3-{[(exo)-bicyclo[2.2.1]hept-2-ylacetyl]amino}-4-oxo-3,4-dihydrophthalazin-1-yl)pyridine-2-carboxylic acid], the Emax is 183% and the concentration for a half-maximal effect (EC50) came to 4120 nM. In the case of `O=C(Cc1cc(F)cc(F)c1)Nn1nc([S+]([O-])c2ccccc2)c2ccccc2c1=O` (centres unmarked) [Example 83, 2-(3,5-difluorophenyl)-N-[1-oxo-4-(phenylsulfinyl)phthalazin-2(1H)-yl]acetamide], the Emax was 105% and the EC50 turned out to be 1100 nM. As to `O=C(Cc1cccc(O)c1)Nn1nc(N2CCOCC2)c2ccccc2c1=O` [Example 143, 2-(3-hydroxyphenyl)-N-[4-(morpholin-4-yl)-1-oxophthalazin-2(1H)-yl]acetamide], the Emax came to 43.8%.
